Measurements published in patent US5204373A, “Farnesylated tetrahydro-naphthalenols as hypolipidemic agents” (Bristol-Myers Squibb Company, priority 1991, dated 1993).

Legend:
6-week old male chickens = experiment: In vivo lipid metabolism evaluation in normocholesterolemic chickens (serum cholesterol pools); set-up: species or system chicken; details: test compound 50 ppm in corn-soybean diet for four weeks; for LDL Cholesterol: control 62.7 ± 2.5; for HDL Cholesterol: control 99.9 ± 1.9; for Total Cholesterol: fasted 36 h, refed 48 h, control 183.0 ± 4.5
Experimental: Serum cholesterol, triglycerides, low density and high density liproprotein cholesterol as determined in drug treated birds.
(§1) Newborn male chicks (8 for each group) were raised on a standard corn-soybean based control diet for two weeks and then switched to either control or experimental diets for four weeks. Drug treatment consisted of the addition of test compounds to the corn-soybean-based diet at a concentration of 50 ppm. At the end of the feeding period, all the birds were fasted (36 hours) and refed (48 hours) to induce cholesterolgenic enzymes prior to sacrifice. The specific activity of HMGR, total serum cholesterol levels, LDL cholesterol and HDL cholesterol pools were determined using previously described methods (Qureshi et al., J. Biol. Chem., 261, 10544 (1986)) (Table 1).

[1] = system: β-Hydroxy-β-Methylglutaryl Coenzyme A Reductase (HMGR); experiment: Ex vivo HMGR suppression in the liver of drug dosed chickens; set-up: species or system chicken; details: test compound 50 ppm in diet for four weeks, control 33.8
Experimental: β-Hydroxy-β-Methylglutaryl Coenzyme A Reductase (HMGR) activity in the liver of drug dosed chickens.
as §1

LDL = LDL antioxidant assay (conjugated diene formation); assay type: biochemical, rabbit; details: for LR (end of lag phase of LDL oxidation) vs control: whole rabbit plasma incubated with drug, LDL isolated, time of first derivative maximum of conjugated diene kinetic curve
Experimental: Inhibition of LDL oxidation as measured by conjugated diene formation.
Whole rabbit plasma was incubated with either vehicle or drug, and the LDL was isolated by ultracentrifugation. EDTA was removed by dialysis and analysis of co-dependent LDL oxidation was determined by conjugated diene formation using the protocol established by Esterbauer et al., (Free Radical Res. Commun. 6(1), 75-75 (1989)). The time of the first derivative maximum in the kinetic curves, corresponding to the end of the lag phase (LR) of the reaction, indicates both the intrinsic effectiveness of the antioxidant combined with its local concentration with in the LDL particles. […] Substitution of methylene for oxygen at position 1 would diminish antioxidant capacity.

Row | Structure (SMILES) | LDL Cholesterol (6-week old male chickens) | HDL Cholesterol (6-week old male chickens) | Total Cholesterol (6-week old male chickens) | HMGR (specific activity) [1] | LDL antioxidation properties (in words) (LDL; rabbit LDL, conjugated diene formation) | LR (end of lag phase of LDL oxidation) vs control (LDL)
1 | CC(C)=CCC/C(C)=C/CC/C(C)=C/CCC1(C)CCc2cc(O)ccc2C1 (centres unmarked) [Compound 12, 5,6,7,8-Tetrahydro-6-Methyl-6-(4,8,12-Trimethyl-3(E), (7E), 11-tridecatrienyl)-2-Naphthalenol] | 28.4 ± 1.3 | 85.3 ± 1.3 | 125.5 ± 3.0 | 14.6 | exhibits LDL antioxidation properties | 1.32
2 | CC(C)=CCC/C(C)=C/CC/C(C)=C/CCC1(C)CCc2cc(O)ccc2O1 (centres unmarked) [Tocotrienol, reference compound] | 42.8 ± 2.8 | 91.7 ± 1.0 | 149.8 ± 4.5 | 13.6 | – | 2.01
